Measurements as given in US20240425938A1, “COMPOSITIONS AND METHODS FOR CHAR[…] FREQUENCY MUTATIONS” (The Broad Institute, Inc., priority 2022, published 2024).

System: P. aeruginosa isolates
Assay type: cell-based, Pseudomonas aeruginosa

SMILES	Antibiotic resistance profile of isolates
C[C@@H](O)[C@H]1C(=O)N2C(C(=O)O)=C(S[C@@H]3CN[C@H](C(=O)N(C)C)C3)[C@H](C)[C@H]12 [meropenem]	resistance
CC(C)(O/N=C(\C(=O)N[C@@H]1C(=O)N2C(C(=O)[O-])=C(C[n+]3ccccc3)CS[C@H]12)c1csc(N)n1)C(=O)O [ceftazidime]	resistance
